These are literature values, as cited in patent US20210322342A1, “ENDOXIFEN FOR THE TREATMENT OF BIPOLAR I DISORDER” (Jina Pharmaceuticals, Inc., priority 2020, published 2021).

One series deals with PKC. The following applies: compared to tamoxifen.
The conditions of series [1]: for plasma levels of free thyroxin (fT4): use of antipsychotics.

As for `CC/C(=C(\c1ccc(O)cc1)c1ccc(OCCNC)cc1)c1ccccc1.O=C(O)CC(O)(CC(=O)O)C(=O)O` [Endoxifen, (Z)—1-(4-Hydroxyphenyl)-1-{4-[2-(monomethylamino)ethoxy]phenyl}—2—pheny 1-1-butene citrate], the “potency in inhibiting the PKC activity” value in the series on PKC is “four-fold higher potency”.

As to `Cc1cc2c(s1)Nc1ccccc1N=C2N1CCN(C)CC1` [olanzapine], the haematological adverse effects entry in series [1] (in vivo) was “causes neutropenia and thrombocytopenia”. The “plasma levels of free thyroxin (fT4)” value in series [1] is reported as “significantly lower”.

Take `OCCOCCN1CCN(C2=Nc3ccccc3Sc3ccccc32)CC1` [quetiapine]: the “plasma levels of free thyroxin (fT4)” value in series [1] is “significantly lower”.
